Assay results published in ChEMBL document CHEMBL1152943, “Synthesis and in vitro anti-hepatitis B virus activity of 6H-[1]benzothiopyrano[4,3-b]quinolin-9-ols” (Bioorg Med Chem, 2009).

Tests used:
[1] = Cytotoxicity against human HepG2(2.2.15) cells after 24 hrs by neutral red dye staining; type: functional; conditions: HepG2 2.2.15, 24 h
Hepatitis B virus [2] = assay: Antiviral activity against HBV infected in human HepG2(2.2.15) cells assessed as inhibition of HBV DNA replication; type: functional, organism-based
[3] = Selectivity index, ratio of TC50 for human HepG2(2.2.15) cells to IC50 for inhibition of HBV DNA replication
Hepatitis B virus [4] = assay: Antiviral activity against HBV infected in human HepG2(2.2.15) cells assessed as inhibition of HBV surface antigen at < TC50; type: functional, organism-based
Hepatitis B virus [5] = assay: Antiviral activity against HBV infected in human HepG2(2.2.15) cells assessed as inhibition of HBV surface antigen; type: functional, organism-based
[6] = Selectivity index, ratio of TC50 for human HepG2(2.2.15) cells to IC50 for inhibition of HBV surface antigen
[7] = Hepatitis B virus, HepG2 2.2.15, read-out: IC50

Structure (SMILES) | CC50 [1] [µM] | IC50 (Hepatitis B virus [2]; [7]) [µM] | Selectivity Index [3] | IC50 (Hepatitis B virus [4]) | IC50 (Hepatitis B virus [2]; hepg2 2.2.15) | IC50 (Hepatitis B virus [5]) [µM] | Selectivity Index [6]
COc1cc2nc3c(cc2c(CN2CCCCC2)c1O)CSc1c(C)cc(C)cc1-3 | 21.9 | 4.2 | 5.3 | Not Active | – | – | –
Nc1ccn([C@@H]2CS[C@H](CO)O2)c(=O)n1 [LAMIVUDINE] | 2180 | 240 | 9.1 | Not Active | – | – | –
COc1cc2nc3c(cc2c(CN2CCCC2)c1O)CSc1ccc(F)cc1-3 | 435 | 47.7 | 9.1 | Not Active | – | – | –
COc1cc2nc3c(cc2c(CN2CCOCC2)c1O)CSc1ccccc1-3 | 42.1 | – | – | Not Active | Not Active | – | –
CCN(CC)Cc1c(O)c(OC)cc2nc3c(cc12)CSc1ccc(C)cc1-3 | 12 | 2 | 6 | Not Active | – | – | –
COc1cc2nc3c(cc2c(CN2CCN(C)CC2)c1O)CSc1ccccc1-3 | 25.2 | – | – | Not Active | Not Active | – | –
COc1cc2nc3c(cc2c(CN2CCOCC2)c1O)CSc1ccc(C)cc1-3 | 181 | 14.7 | 12.4 | Not Active | – | – | –
COc1cc2nc3c(cc2c(CN(C)C)c1O)CSc1ccccc1-3 | 36.5 | – | – | – | Not Active | 9.3 | 3.9
CCN(CC)Cc1c(O)c(OC)cc2nc3c(cc12)CSc1cc(F)ccc1-3 | 20.7 | 2.4 | 8.7 | Not Active | – | – | –
COc1cc2nc3c(cc2c(CN2CCCC2)c1O)CSc1cc(F)ccc1-3 | 566 | 173 | 3.3 | Not Active | – | – | –
COc1cc2nc3c(cc2c(CN2CCOCC2)c1O)CSc1c(C)cc(C)cc1-3 | 50.6 | – | – | Not Active | Not Active | – | –
COc1cc2nc3c(cc2c(CN(C)C)c1O)CSc1ccc(C)cc1-3 | 67.3 | – | – | – | Not Active | 22.1 | 3
COc1cc2nc3c(cc2c(CN2CCCC2)c1O)CSc1ccc(C)cc1-3 | 146 | 56.3 | 2.6 | Not Active | – | – | –
CCN(CC)Cc1c(O)c(OC)cc2nc3c(cc12)CSc1ccccc1-3 | 39 | – | – | Not Active | Not Active | – | –
COc1cc2nc3c(cc2c(CN(C)C)c1O)CSc1c(C)cc(C)cc1-3 | 32.4 | – | – | – | Not Active | 13.8 | 2.4
COc1cc2nc3c(cc2c(CN2CCN(C)CC2)c1O)CSc1cc(F)ccc1-3 | 13.5 | – | – | Not Active | Not Active | – | –
COc1cc2nc3c(cc2c(CN2CCOCC2)c1O)CSc1cc(C)ccc1-3 | 262 | – | – | Not Active | Not Active | – | –
COc1cc2nc3c(cc2c(CN2CCN(C)CC2)c1O)CSc1ccc(C)cc1-3 | 527 | 107 | 4.9 | Not Active | – | – | –
COc1cc2nc3c(cc2c(CN2CCOCC2)c1O)CSc1cc(F)ccc1-3 | 28.8 | – | – | Not Active | Not Active | – | –
